Results: patent US11884649B2, “IRE1α inhibitors and uses thereof” (The Regents of the University of California, priority 2020, dated 2024)

Tests used:
Type in all cases: biochemical
dpIRE1α* = biological target: T1, dpIRE1α* (Homo sapiens, UniProt O75460); assay: In vitro Kdimer assay with dephosphorylated construct; details: 50 μM inhibitor
T1 construct: human IRE1α (residues 547-977, IRE1α*) was expressed in SF9 insect cells; His6 (N); made in house; host or cells: Sf9 insect cells, then λ-PPase treatment
T1 sequence (O75460 547-977): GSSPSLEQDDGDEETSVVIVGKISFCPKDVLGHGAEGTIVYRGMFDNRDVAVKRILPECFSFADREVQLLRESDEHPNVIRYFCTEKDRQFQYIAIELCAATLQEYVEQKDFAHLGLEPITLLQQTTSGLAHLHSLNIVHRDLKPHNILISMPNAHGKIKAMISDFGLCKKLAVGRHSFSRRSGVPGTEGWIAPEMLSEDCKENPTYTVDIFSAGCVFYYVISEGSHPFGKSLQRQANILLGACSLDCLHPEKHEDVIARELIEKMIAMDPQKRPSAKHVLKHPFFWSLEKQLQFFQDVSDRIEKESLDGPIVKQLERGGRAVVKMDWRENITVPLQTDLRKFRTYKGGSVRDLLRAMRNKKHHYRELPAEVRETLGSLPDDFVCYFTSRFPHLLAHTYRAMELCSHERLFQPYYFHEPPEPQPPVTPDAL
Description: In order to better understand how to achieve an optimal intermediate RNase activation state through engagement of IRE1α's kinase domain, we first established a quantitative in vitro framework for characterizing how ATP-binding site occupancy influences RNase activity. […] This dimeric state-commonly referred to as the “back-to-back” dimer—is characterized by an extensive interface between the kinase and RNase domains of each IRE1α protomer; this dimeric state can be promoted through mass action as IRE1α concentration is raised. […] Furthermore, ligands that occupy the ATP-binding site of the kinase domain can also stimulate IRE1α's RNase activity by promoting dimer formation. We measured the ability of a purified, recombinant kinase/RNase domain construct of IRE1α—called IRE1α*—to cleave a FRET-quenched XBP1 RNA mini-substrate as a function of IRE1α* concentration, in order to provide a quantitative metric of IRE1α's dimer affinity (Kdimer) (FIG. 1B). […]
IRE1α* or dPIRE1α* was titrated from either 2 μM or 4 μM in two-fold serial dilutions in assay buffer (20 mM Tris, 50 mM sodium chloride, 1 mM MgCl2, 2 mM DTT, 0.05% Triton X-100 (v/v), pH 7.5) and incubated with 50 μM inhibitor for 30 minutes at room temperature. […] Fluorescence was detected on a Perkin Elmer Envision Microplate Reader at excitation and emission wavelengths of 650 nm and 665 nm. […]

IRE1α* [1] = biological target: T2, IRE1α* (Homo sapiens, UniProt O75460); assay: In vitro Kdimer assay (dimerization affinity from RNase activity); details: 50 μM inhibitor
T2 construct: human IRE1α (residues 547-977, IRE1α*) was expressed in SF9 insect cells; His6 (N); made in house; host or cells: Sf9 insect cells (Bac-to-Bac baculovirus)
T2 sequence (O75460 547-977): as above
Description: In order to better understand how to achieve an optimal intermediate RNase activation state through engagement of IRE1α's kinase domain, we first established a quantitative in vitro framework for characterizing how ATP-binding site occupancy influences RNase activity. […] This dimeric state-commonly referred to as the “back-to-back” dimer—is characterized by an extensive interface between the kinase and RNase domains of each IRE1α protomer; this dimeric state can be promoted through mass action as IRE1α concentration is raised. […] Furthermore, ligands that occupy the ATP-binding site of the kinase domain can also stimulate IRE1α's RNase activity by promoting dimer formation. We measured the ability of a purified, recombinant kinase/RNase domain construct of IRE1α—called IRE1α*—to cleave a FRET-quenched XBP1 RNA mini-substrate as a function of IRE1α* concentration, in order to provide a quantitative metric of IRE1α's dimer affinity (Kdimer) (FIG. 1B).
IRE1α* or dPIRE1α* was titrated from either 2 μM or 4 μM in two-fold serial dilutions in assay buffer (20 mM Tris, 50 mM sodium chloride, 1 mM MgCl2, 2 mM DTT, 0.05% Triton X-100 (v/v), pH 7.5) and incubated with 50 μM inhibitor for 30 minutes at room temperature. Assays were initiated by adding 10 μL of XBP1-mini substrate (5′-Alex647-CAUGUCCGCAGCGCAUG-IowaBlack-FQ-3′ (SEQ ID NO:1); IDT) to the wells at a final concentration of 6 μM and a final well volume of 30 μL. Fluorescence was detected on a Perkin Elmer Envision Microplate Reader at excitation and emission wavelengths of 650 nm and 665 nm. Reaction process was monitored real time in 10-second intervals for at least 30 minutes. Initial rates of XBP1-cleavage were determined for each respective IRE1α* of dpIRE1α* concentration. Specific activity was then determined by dividing rate (RFU/s) by the respective IRE1α* of dpIRE1α* used (RFU/s*[IRE1α]). Kdimer values were determined by fitting these values using the non-linear regression ‘one-site total’ binding parameter in GraphPad Prism analysis software.

IRE1α* [2] = biological target: T2, IRE1α*; assay: In vitro RNase activity assay, XBP1-mini substrate cleavage, inhibitor titrations; details: relative to apo IRE1α*
Description: In Vitro RNase Activity Assay Inhibitor Titrations
50 nM IRE1α* was incubated with inhibitor (initial concentration of 10 or 60 μM, three-fold serial dilutions) or DMSO for 30 min in assay buffer (20 mM Tris, 50 mM NaCl, 1 mM MgCl2, 2 mM DTT, 0.05% Triton X-100 (v/v), pH 7.5). Assays were initiated by adding 10 μL of XBP1-mini substrate (5′-Alex647-CAUGUCCGCAGCGCAUG-IowaBlack-FQ-3′ (SEQ ID NO: 1); IDT) to the wells at a final concentration of 200 nM and a final well volume of 30 μL. Fluorescence was detected on a Perkin Elmer Envision Microplate Reader at excitation and emission wavelengths of 650 nm and 665 nm. Dose-response curves were fit using “one-site fit log IC50” parameter using GraphPad Prism analysis software.

IRE1α* [3] = biological target: T2, IRE1α*; assay: In vitro kinase activity assay (IRE1α kinase inhibition)
Description: A construct containing the cytosolic kinase and RNase domains of human IRE1α (residues 547-977, IRE1α*) was expressed in SF9 insect cells by using the Bac-to-Bac baculovirus expression system (Invitrogen) with a His6 tag at the N-terminus and purified with a nickel-nitriloacetic acid (Qiagen) column. To generate dP-IRE1α*, we removed basal phosphorylation sites by incubating IRE1α* with λ-PPase (New England Biolabs) at a molar ratio of 5:1 (IRE1α*: λ-PPase) in 50 mM HEPES pH 7.5, 100 mM NaCl, 1 mM MnCl2, 2 mM dithiothreitol (DTT) and 0.01% Brij 35 detergent (v/v) overnight at 4° C. Dephosphorylation was verified through western blotting using a universal phospho-protein detection agent (biotin-pIMAGO (Tymora Analytical Operations, Cat. No.: FL800) and imaged using a streptavidin-linked fluorophore.
In Vitro Kinase Activity Assay
Inhibitors (initial concentration of 10 or 60 μM, three-fold serial dilutions) were incubated with IRE1α* in cleavage buffer (20 mM HEPES, 0.05% Triton X-100 (v/v), 50 mM KCl, 1 mM MgCl2, 1 mM DTT, pH 7.5) for 30 min, followed by incubation with 10 μCi [γ^32P] ATP (3,000 Ci mmol^−1, PerkinElmer) at 23° C. for 3 hours. Samples were then spotted onto glass fiber paper (Easytab-C Glass Fiber Filter Paper, Perkin Elmer) and washed in twice with 0.5% phosphoric acid and autoradiographed using a GE Typhoon FLA 9000 Imager. Blots were quantitated using ImageQuant software. The percent inhibition was quantified by setting the background (no kinase well) as 0 and standardizing to IRE1α* without compound treatment (IRE1α*+DMSO). Dose-response curves were fit using “one-site fit log IC50” parameter using GraphPad Prism analysis software.
Compound Characterization (IC50 IRE1α Kinase Inhibition)

Structure (SMILES)	formation of the RNase active dimer of dpIRE1α* (dpIRE1α*)	dimerization affinity of IRE1α* / formation of RNase active dimers (IRE1α* [1])	RNase activity of IRE1α* (in words) (IRE1α* [2])	kinase activity of IRE1α* / ATP-binding site occupancy (in words) (IRE1α* [3])
NC(=O)Nc1cc(-c2cccc(F)c2)sc1C(=O)N[C@H]1CCCNC1 [AZD7762]	promotes the formation of the RNase active dimer of dpIRE1α*	promotes the formation of the RNase active dimer of IRE1α*	–	–
N[C@H]1CC[C@H](Nc2nccc(-c3cccnc3Oc3ccc(NS(=O)(=O)CCC(F)(F)F)c(F)c3)n2)CC1 [compound 3, N-(4-(3-(2-((1r,4r)-4-aminocyclohexylamino)pyrimidin-4-yl)pyridin-2-yloxy)-2-fluorophenyl)-3,3,3-trifluoropropane-1-sulfonamide]	–	completely suppressed the formation of RNase active dimers	dose-dependently inhibited	dose-dependently inhibited
